Test results: PubChem BioAssay (NCI)
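Five concentrations, 48 hours, 96-well plates. GI50 = concentration required for 50% inhibition of growth. TGI: total growth inhibition.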

Tests used:
Test in all cases: growth of human tumour cells (NCI), 48 h
[1] = system: LOX IMVI melanoma
[2] = system: SF-295 CNS
[3] = system: CAKI-1 renal
[4] = system: SF-539 CNS
[5] = system: UACC-257 melanoma
[6] = system: SK-MEL-2 melanoma
[7] = system: PC-3 prostate
[8] = system: SK-OV-3 ovarian
[9] = system: HCT-116 colon
[10] = system: M14 melanoma

SMILES	GI50 [1] [µM]	TGI [1] [µM]	GI50 [2] [µM]	TGI [2] [µM]	GI50 [3] [µM]	TGI [3] [µM]	GI50 [4] [µM]	TGI [4] [µM]	GI50 [5] [µM]	TGI [5] [µM]	GI50 [6] [µM]	TGI [6] [µM]	GI50 [7] [µM]	TGI [7] [µM]	GI50 [8] [µM]	TGI [8] [µM]	GI50 [9] [µM]	TGI [9] [µM]	GI50 [10] [µM]	TGI [10] [µM]
C=C1[C@@H](O)O[C@H]2[C@H]1C[C@H](OC(C)=O)[C@]13C(=O)O[C@H]4C[C@](C)(O)[C@H]([C@H]41)C31C=C(C)[C@]2(O)O1	29.6	> 100	4.03	> 100	0.516	34.6	21.1	52	25.6	87.2	18.6	59.7	53.3	> 100	> 100	> 100	19.8	38.2	–	–
Cc1[nH]c(-c2cc(N)ccc2Cl)c2c1C(=O)CCCC2	2.25	7.39	8.01	> 100	0.702	17.9	3.13	26.7	3.49	> 100	7.65	60.7	3.5	> 100	3.56	36.6	3.92	> 100	4.37	> 100
O=C(O)c1ccccc1NC(=S)c1ccccc1	–	> 100	–	> 100	–	> 100	–	> 100	–	> 100	–	–	–	> 100	–	> 100	–	> 100	–	> 100
CCN1C(=O)N(CC)C2C1NN=c1s/c(=C\c3ccc(F)cc3)c(=O)n12 (stereo not given)	0.338	> 100	0.0819	> 100	0.0722	> 100	0.158	0.527	42.9	> 100	0.425	> 100	0.217	> 100	0.343	> 100	0.211	> 100	0.136	> 100
CC1C=CC(OC(=O)C(C)(O)CCC(O)(C(=O)OC2CC(O)C(C(C)C)CC2(C)O)C(C)C)(C(C)C)CC1 (stereo not given)	0.0734	0.142	0.657	1.41	0.594	1.2	0.685	1.35	0.911	2.56	0.769	1.64	0.676	1.4	0.799	4.1	0.16	0.449	0.745	1.81
COC(=O)c1cc(-c2ccc(OC)c(OC)c2)[nH]c1N/N=C/c1c(Cl)cccc1Cl	0.837	13	0.257	2.07	0.768	7.1	0.317	1.02	0.723	> 23.1	0.832	7.14	0.538	–	0.567	2.66	0.396	2.11	0.523	5.2
COc1cc(C(=O)Nc2cc(O)c(CC=C(C)C)c(O)c2)cc2c1O[C@]1(C)CC[C@@H](O)C(C)(C)[C@H]1C2	0.281	10.3	0.0397	0.325	0.491	63.1	0.0391	1.51	0.0989	13.1	0.143	8.21	0.142	37.5	0.729	17.3	0.219	10.8	0.333	2.35
N#CCCNc1nonc1-c1nc2ccccc2n1CC(=O)c1ccc(NC(=O)[C@@H](N)CCCCN)cc1	0.0513	> 100	0.016	> 100	0.061	> 100	–	–	> 100	> 100	–	–	0.046	> 100	0.0313	> 100	0.04	> 100	0.0199	0.0685
C/C(=N\O)c1cccc(Nc2cc(-n3ccnc3)c3ccccc3n2)c1	–	–	8.16	22.8	11.2	32.9	17.2	33.5	–	–	16.4	31.6	24.8	76.6	20.9	60.5	13.9	26.8	11.6	24.1
Cn1ccnc1Oc1ccc(Cl)cc1	–	36.6	–	–	–	–	–	31.7	–	21.5	–	39.5	–	34.2	–	> 100	–	24.3	–	37.2
COc1ccc2c(c1)C(=O)c1c-2c(OCCN(C)C)nc2ccccc12	1.54	4.91	–	–	1.47	4.14	4.75	17.9	3.06	10.9	12.2	25.7	4.99	21.4	4.87	35.3	0.768	10.8	3.85	15
CC(CO)(Nc1ccc([N+](=O)[O-])cc1[N+](=O)[O-])C(=O)O (stereo not given)	–	48.2	–	> 100	–	89.8	–	91.1	–	69.2	–	55.4	–	> 100	–	–	–	> 100	–	> 100
Cc1[nH]nc(-c2ccon2)c1N=O	–	–	–	34.6	–	60.5	–	32.7	–	31.7	–	> 100	–	70.3	–	89.2	–	56.8	–	43.5
CCC(=O)Nc1ccc(N2C(=O)/C(=C/c3ccc(OC)cc3)N=C2c2ccccc2)cc1	2.51	13.2	28	> 50	6.4	21.7	5.49	16	22.2	> 50	> 50	> 50	13.5	> 50	–	–	2.41	8.9	8.6	43.3
O=C(Cc1nc2ccccc2o1)C(=O)Nc1cccc(C(F)(F)F)c1	–	> 100	–	> 100	–	> 100	–	> 100	–	> 100	–	> 100	–	–	–	> 100	–	> 100	–	> 100
Cc1cccc(NC(=O)/C(=N\N)C(c2cnc3ccc([N+](=O)[O-])cc3n2)[N+](=O)[O-])c1C (stereo not given)	–	> 100	–	> 100	–	> 100	–	> 100	–	> 100	–	> 100	–	–	–	> 100	–	> 100	–	> 100
c1cc(-c2cn3c(n2)SCC3)ccn1	–	> 100	–	> 100	–	> 100	–	> 65.2	–	> 100	–	> 100	–	–	–	> 100	–	> 60.4	–	> 100

SMILES	GI50 [1] [µM]	TGI [1] [µM]	GI50 [2] [µM]	TGI [2] [µM]	GI50 [3] [µM]	TGI [3] [µM]	GI50 [4] [µM]	TGI [4] [µM]	GI50 [5] [µM]	TGI [5] [µM]	GI50 [6] [µM]	TGI [6] [µM]	GI50 [7] [µM]	TGI [7] [µM]	GI50 [8] [µM]	TGI [8] [µM]	GI50 [9] [µM]	TGI [9] [µM]	GI50 [10] [µM]	TGI [10] [µM]
N#CC1(C#N)C(c2ccccc2)C=CC12OCCCO2 (stereo not given)	–	> 100	–	> 100	–	74.1	–	45.9	–	> 100	–	> 100	–	–	–	> 100	–	> 100	–	> 100
CC(=O)/C(=C\c1ccccc1O)C(=O)Nc1ccccc1C	–	27.6	–	76.2	–	63.8	–	42.2	–	> 100	–	46.9	–	–	–	> 100	–	> 100	–	39.9
CCOC(=O)/C(I)=C/c1cc(OC)c(OC)c(OC)c1	–	5.01	–	54.4	–	16.3	–	> 100	–	25.7	–	> 100	–	–	–	> 100	–	12.5	–	14.7
C[n+]1c2ccccc2nc2c(N)cc(N)cc21	18	94	3.6	31	0.519	19	5.41	32.2	–	–	–	–	21.3	> 100	25.8	> 100	10.5	83.6	19.1	76.3
Fc1cccc(F)c1C(Nc1nncs1)Nc1nncs1	–	–	–	> 100	–	> 100	–	> 100	–	> 100	–	> 100	–	> 100	–	> 100	–	> 100	–	> 100
Cc1ccncc1C(N)=O	> 100	> 100	> 100	> 100	> 100	> 100	> 100	> 100	> 100	> 100	–	–	> 100	> 100	> 100	> 100	> 100	> 100	> 100	> 100
COc1cccc(Oc2ccccc2NC(=O)CNC(=O)c2cccc3ccccc23)c1	0.267	> 25	0.111	> 25	0.917	> 25	0.225	1.07	–	–	0.181	> 25	0.284	> 25	0.494	12.3	0.0962	3.77	0.157	> 25
COc1ccc(-c2[nH]c3ccccc3c2CCNS(=O)(=O)c2ccc(C)cc2)cc1	–	> 10	–	> 10	–	> 10	–	> 10	–	> 10	–	> 10	–	–	–	> 10	–	> 10	–	> 10
CCOC(=O)C1Nc2ccccc2[C@H]2OCC[C@@H]12 (stereo not given in full)	–	> 100	–	> 100	–	> 100	–	> 100	–	> 100	–	> 100	–	–	–	> 100	–	> 100	–	> 100
O=Nc1c(-c2c(O)[nH]c3ncccc23)[nH]c2ccccc12	5.32	> 100	> 100	> 100	1.9	> 100	> 100	> 100	> 100	> 100	–	–	> 26.1	> 100	–	–	6.12	> 100	10.8	> 100
COc1cc2cc(Oc3ccc(NC(=O)c4ccc(Cl)c(Cl)c4)cc3)c(C)nc2cc1OC	> 100	> 100	1.59	> 100	5.96	> 100	> 100	> 100	> 100	> 100	> 100	> 100	4.77	> 100	> 100	> 100	4.26	> 100	–	–
O=Cc1ccc2c(c1I)OCO2	–	> 100	–	> 100	–	> 100	–	> 100	–	> 100	–	> 100	–	–	–	> 100	–	> 100	–	> 100
O=C1C(OCCOc2ccccc2)=C(OCCOc2ccccc2)C(=O)c2ccccc21	3.75	> 100	5.11	> 100	12.5	> 100	> 100	> 100	3.72	> 100	18.6	> 100	17.2	> 100	23.1	> 100	3.13	> 100	–	–
C[CH2][Hg][S]c1ccccc1C(=O)O	0.488	2.16	3.7	16.5	0.316	1.47	1.7	3.32	1.18	2.45	–	–	3.88	17.7	2.77	8.21	1.31	2.58	1.36	2.74
CC1=C(C(=O)Nc2ccc(Cl)c(Cl)c2)C(c2ccc([N+](=O)[O-])cc2)C(C(=O)Nc2ccc(Cl)c(Cl)c2)=C(C)N1	–	4.02	–	9.24	–	16	–	12.1	–	7.84	–	4.79	–	–	–	24.8	–	3.51	–	3.82
CN=C1OC2(c3ccccc3)C3=C(OC(=NC)N2C)C(=O)OC3(c2ccccc2)N1C (stereo not given)	–	–	–	> 100	–	> 100	–	> 100	–	> 100	–	> 100	–	> 100	–	> 100	–	> 100	–	> 100
